Experimental data taken from patent US9849197B2, “Switching-type fluorescent nanoparticle probe, and fluorescent molecular imaging method using same” (KYOTO UNIVERSITY, priority 2011, dated 2017).

Assay: Change in fluorescence intensity of lactosome encapsulating fluorescent dye due to change in external environment 1
Assay type: physicochemical
Details: lactosome encapsulating 20 mol % of the dye; for fluorescence intensity in the SDS solution: 5 wt % SDS 1:1, room temperature 30 minutes; for fluorescence intensity in the BSA solution: 5 wt % albumin (BSA) 1:1, room temperature 30 minutes; for fluorescence intensity in the plasma: plasma from male ddY mice 1:1, room temperature 30 minutes
Description: In FIGS. 2(A) to 2(D), the horizontal axis represents wavelength and the vertical axis represents fluorescence intensity.

fluorescence intensity in the SDS solution | fluorescence intensity in the BSA solution | fluorescence intensity in the plasma | Structure (SMILES)
recovered | recovered | recovered | CC1(C)C(/C=C/C2=C(Cl)C(=C/C=C3/N(CCCCCC(=O)O)c4ccc5ccccc5c4C3(C)C)/CCC2)=[N+](CCO)c2ccc3ccccc3c21 [IC7-1]
recovered | recovered | recovered | CC1(C)C(/C=C/C=C/C=C/C=C2\N(CCCCS(=O)(=O)O)c3ccc4ccccc4c3C2(C)C)=[N+](CCCCS(=O)(=O)[O-])c2ccc3ccccc3c21 [ICG, indocyanine green]
